The text below walks through data of US11357779B2 (G1 Therapeutics, Inc., priority 2018, dated 2022).

Structures are written as SMILES. Like-named read-outs stand apart in the source and are kept apart here.

The conditions of series [1]: human, in vivo. The protocol:
Absolute neutrophil count (ANC) was determined from the blood sample obtained from subjects described in Example 1 on day 22 using standard methods.
Absolute neutrophil count (ANC) was also determined for blood samples obtained from subjects in all dosing cohorts (200 mg QD, 300 mg QD, 400 mg QD, 500 mg QD, 100 mg BID, and 150 mg BID dosage of Form B of Compound II).

Series [2] in a line: TG and TG-IR analysis of Form B. It is filed as physicochemical. The protocol:
The TG analyses were performed using a TA Instrument Q5000 thermogravimetric analyzer. Temperature calibration was performed using nickel and Alumel. The sample was placed in a platinum pan and inserted into the TG furnace. The furnace was heated under a nitrogen purge to 350° C. at a rate of 10° C./min.
Thermogravimetric infrared (TG-IR) analysis was performed on a TA Instruments Q5000 IR thermogravimetric (TG) analyzer interfaced to a Magna-IR 560@ Fourier transform infrared (FT-IR) spectrophotometer (Thermo Nicolet) equipped with an Ever-Glo mid/far IR source, a potassium bromide (KBr) beamsplitter, and a mercury cadmium telluride (MCT-A) detector. The FT-IR wavelength verification was performed using polystyrene, and the TG calibration standards were nickel and Alumel™. The sample was placed in a platinum sample pan and the pan was inserted into the TG furnace. The TG instrument was started first, immediately followed by the FT-IR instrument. The TG instrument was operated under a flow of helium at 90 and 10 cc/minute for the purge and balance, respectively. The furnace was heated under helium at a rate of 20° C./minute to a final temperature of approximately 140° C. IR spectra were collected approximately every 32 seconds for approximately 7.5 minutes. Each IR spectrum represents 32 co-added scans collected at a spectral resolution of 4 cm-1. Volatiles were identified from a search of the High Resolution Nicolet Vapor Phase spectral library.
A TG-IR experiment was carried out on pure Form B (Sample 11 from the small-scale slurry experiments) at […] in an effort to investigate the stability of Form B at elevated temperature by monitoring potential release of hydrogen chloride.

Take `CC(C)N1CCN(c2ccc(Nc3ncc4cc5n(c4n3)C3(CCCCC3)CNC5=O)nc2)CC1` [Compound I, 2′-((5-(4-isopropylpiperazin-1-yl)pyridin-2-yl)amino)-7′,8′-dihydro-6′H-spiro[cyclohexane-1,9′-pyrazino[1′,2′:1,5]pyrrolo[2,3-d]pyrimidin]-6′-one]: the “(AUC0-24,ss)/ANC” value in series [1] (200 mg) is on record as 0.10; in series [1] (300 mg) it was 0.47; in series [1] (400 mg) it was 0.15.

Take `CC(C)N1CCN(c2ccc(Nc3ncc4cc5n(c4n3)C3(CCCCC3)CNC5=O)nc2)CC1` [Compound II, 2′-((5-(4-isopropylpiperazin-1-yl)pyridin-2-yl)amino)-7′,8′-dihydro-6′H-spiro[cyclohexane-1,9′-pyrazino[1′,2′:1,5]pyrrolo[2,3-d]pyrimidin]-6′-one]: the TGA weight loss in series [2] (at 26-120° C., 125 mg/mL Slurry, 30° C., 43 h VF, washed, Air-dried for 3.5 h) is given as 10% weight loss at 26-; in series [2] (at 26-120° C., Vacuum drying, 22° C., 0.5 h, 15 in Hg, 22° C. 1.5 h, 27-28 in Hg), 9.9% weight loss at 26-; in series [2] (at 31-120° C., Vacuum drying, 22° C., 2.0 h, 27 in Hg), 7.5% weight loss at 31-.
